Read-outs that look alike come from different tables or passages of the source.
Legend:
PRMT5 [1] = biological target: T1, PRMT5 (Homo sapiens, UniProt O14744); assay: PRMT5 biochemical IC50 assay with no cofactor; conditions: PRMT5, no cofactor
T1 construct: purchased Viva (custom protein)
Text: Table 1 indicates IC50 values (μM) against PRMT5 for exemplary compounds in the presence of SAM as cofactor, with no cofactor, and with MTA as cofactor, respectively (columns 4-6). […] Ki values can be calculated from the IC50 values as described in the Examples section. As detailed in the Examples section, for the assay performed in the presence of SAM, IC50=Ki×1.5 (Ki=IC50/1.5).

[2] = system: HAP1 MTAP-intact cell line; assay: SDMA in-cell western assay, HAP1 MTAP-intact; type: cell-based; conditions: HAP1 MTAP-intact, read-out: MTAP HAP1 intact IC50
Procedure, shortened: (§1)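 IC50 values come from SDMA signal quantified by in-cell western in two HAP1 lines, one with native MTAP levels and one lacking MTAP.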

PRMT5 [3] = biological target: T1, PRMT5; assay: PRMT5 biochemical IC50 assay with SAM as cofactor; conditions: PRMT5, SAM as cofactor; read-out: SAM IC50
PRMT5 [4] = biological target: T1, PRMT5; assay: PRMT5 biochemical IC50 assay with MTA as cofactor; conditions: PRMT5, MTA as cofactor; read-out: MTA IC50
[5] = system: HAP1 MTAP-deleted cell line; assay: Viability assay, MTAP-deleted cell line; type: cell-based; conditions: Homo sapiens, read-out: HAP1 MTAP deleted viability
Text: Table 1 additionally indicates IC50 values in a viability assay for the MTAP-deleted cell line (column 10), indicating the effect of treatment with compound on cell survival.

[6] = system: HAP1 MTAP-deleted cell line; assay: SDMA in-cell western assay, HAP1 MTAP-deleted; type: cell-based; conditions: for IC50: Homo sapiens, HAP1, SDMA in-cell western, HAP1 MTAP-deleted; for MTAP intact/deleted ratio: SDMA in-cell western
Procedure, shortened: as §1

[7] = Homo sapiens, HAP1, SDMA in-cell western
[8] = HAP1, viability assay, MTAP-deleted cell line
[9] = read-out: HAP1 MTAP deleted IC50
[10] = IC50 ratio HAP1 MTAP-intact / HAP1 MTAP-deleted
[11] = read-out: No Cofactor/ rel IC50
[12] = HAP1, viability, HAP1 MTAP-deleted cell line
[13] = read-out: HAP 1 MTAP deleted IC50

T1 sequence (O14744 whole entry): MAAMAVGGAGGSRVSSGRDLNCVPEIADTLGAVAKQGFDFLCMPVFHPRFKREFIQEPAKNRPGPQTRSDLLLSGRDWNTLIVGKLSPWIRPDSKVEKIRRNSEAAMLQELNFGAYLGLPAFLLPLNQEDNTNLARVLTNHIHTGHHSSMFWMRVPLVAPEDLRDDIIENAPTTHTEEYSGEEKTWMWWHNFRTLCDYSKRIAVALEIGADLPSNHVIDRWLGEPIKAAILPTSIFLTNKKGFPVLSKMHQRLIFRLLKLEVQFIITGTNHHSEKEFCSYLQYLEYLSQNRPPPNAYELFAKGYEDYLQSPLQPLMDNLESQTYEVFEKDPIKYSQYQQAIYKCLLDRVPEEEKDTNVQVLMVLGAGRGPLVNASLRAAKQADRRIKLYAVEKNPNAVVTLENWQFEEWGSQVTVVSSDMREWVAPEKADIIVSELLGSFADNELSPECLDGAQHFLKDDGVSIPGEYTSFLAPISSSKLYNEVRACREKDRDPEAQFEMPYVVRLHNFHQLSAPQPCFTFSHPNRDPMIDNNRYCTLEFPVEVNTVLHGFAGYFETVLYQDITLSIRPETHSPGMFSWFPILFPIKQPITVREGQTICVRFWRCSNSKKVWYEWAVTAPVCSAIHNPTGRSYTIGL
T1 sequence (Q9BQA1 whole entry partner): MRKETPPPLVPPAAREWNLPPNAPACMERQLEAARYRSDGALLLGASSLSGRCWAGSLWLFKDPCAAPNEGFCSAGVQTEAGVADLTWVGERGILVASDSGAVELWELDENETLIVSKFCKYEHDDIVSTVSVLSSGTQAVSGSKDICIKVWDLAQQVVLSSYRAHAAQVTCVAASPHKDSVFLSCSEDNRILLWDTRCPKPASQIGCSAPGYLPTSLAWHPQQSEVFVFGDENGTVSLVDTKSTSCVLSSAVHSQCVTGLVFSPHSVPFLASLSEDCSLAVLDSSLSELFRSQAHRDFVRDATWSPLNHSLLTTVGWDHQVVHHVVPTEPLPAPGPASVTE

SMILES	IC50 (PRMT5 [1]; read-out: No Cofactor/rel IC50)	IC50 [2, 7]	IC50 (PRMT5 [3])	IC50 (PRMT5 [4])	IC50 [5, 8]	IC50 [6, 9]	MTAP intact/deleted ratio ([6]; IC50 ratio HAP1 MTAP-intact vs HAP1 MTAP-deleted)	MTAP intact/deleted ratio [6, 10]	IC50 (PRMT5 [1]; [11])	IC50 ([2]; SDMA in-cell western)	IC50 [5, 12]	IC50 [6, 13]	IC50 ([5]; HAP1, viability IC50, MTAP-deleted cell line)
Cc1cc(NC(=O)C(=O)N2C[C@H](C)CC[C@H]2c2cccc(C3CCN(C)CC3)c2)cnc1N (racemic) [Compound 1149, N-(6-amino-5-methylpyridin-3-yl)-2-(5-methyl-2-(3-(1-methylpiperidin-4-yl)phenyl)piperidin-1-yl)-2-oxoacetamide]	50 to 500 nM	100 to 1000 nM	50 to 500 nM	< 50 nM	< 1000 nM	< 100 nM	A (an IC50 ratio greater than or equal to 10 fold)						
C[C@H]1CC[C@H](c2ccc(Cl)c(Cl)c2)N(C(=O)C(=O)Nc2cncc(C(N)=O)c2)C1 (single isomer, unassigned) [Compound 488]	50 to 500 nM	> 1000 nM	50 to 500 nM	< 50 nM	1000 to 10000 nM	100 to 1000 nM		A (an IC50 ratio greater than or equal to 10 fold)					
CCc1cc(NC(=O)C(=O)N2C[C@@H](C)CC[C@@H]2c2ccc3sc([C@H]4CCN(C)C(C)(C)C4)nc3c2)cnc1N (single isomer, unassigned) [Compound 1397]			50 to 500 nM	< 50 nM				A (an IC50 ratio greater than or equal to 10 fold)	< 50 nM	< 100 nM	< 1000 nM	< 100 nM	
Cc1ncc(NC(=O)C(=O)N2C[C@@H](C)CC[C@@H]2c2ccc3sc(C4CCN(C)CC4)nc3c2)cc1C1COC1 [Compound 1309, 2-((2R,5S)-5-methyl-2-(2-(1-methylpiperidin-4-yl)benzo[d]thiazol-5-yl)piperidin-1-yl)-N-(6-methyl-5-(oxetan-3-yl)pyridin-3-yl)-2-oxoacetamide]		< 100 nM	< 50 nM	< 50 nM				A (an IC50 ratio greater than or equal to 10 fold)	< 50 nM		< 1000 nM	< 100 nM	
Cc1cc(NC(=O)C(=O)N2C[C@H](C)CC[C@H]2c2cc(F)cc(Cl)c2)cnc1N (single isomer, unassigned) [Compound 659]	< 50 nM	100 to 1000 nM	50 to 500 nM	< 50 nM				A (an IC50 ratio greater than or equal to 10 fold)				< 100 nM	< 1000 nM
CC(=O)Nc1ccc([C@@H]2CC[C@@H](C)CN2C(=O)C(=O)Nc2cncc(C)c2)cc1 (racemic) [Compound 111, 2-[(2R,5S)-2-(4-acetamidophenyl)-5-methyl-1-piperidyl]-N-(5-methyl-3-pyridyl)-2-oxo-acetamide]		> 1000 nM	50 to 500 nM	50 to 500 nM	> 10000 nM			A (an IC50 ratio greater than or equal to 10 fold)	50 to 500 nM			100 to 1000 nM	
CCc1cc(NC(=O)C(=O)N2C[C@@H](C)CC[C@@H]2c2ccc3sc([C@H]4CCN(C)C4)nc3c2)cnc1N (single isomer, unassigned) [Compound 1311]		< 100 nM	< 50 nM	< 50 nM				A (an IC50 ratio greater than or equal to 10 fold)	< 50 nM		< 1000 nM	< 100 nM	
C[C@@H]1CC[C@@H](c2ccc3sccc3c2)N(C(=O)C(=O)Nc2cncc(C(N)=O)c2)C1 (racemic) [Compound 409, rac-5-[[2-[(2S,5R)-2-(benzothiophen-5-yl)-5-methyl-1-piperidyl]-2-oxo-acetyl]amino]pyridine-3-carboxamide]	50 to 500 nM	> 1000 nM	50 to 500 nM	< 50 nM	1000 to 10000 nM	< 100 nM		A (an IC50 ratio greater than or equal to 10 fold)					
CN(C)c1cccc([C@H]2CCCCN2C(=O)C(=O)Nc2cncc(C(N)=O)c2)c1 (single isomer, unassigned) [Compound 366]	> 500 nM	> 1000 nM	> 500 nM	50 to 500 nM	> 10000 nM	> 1000 nM		C (an IC50 ratio of less than 3 fold)					

— US11999727B2 (Tango Therapeutics, Inc., priority 2020, dated 2024)
